# pKi: −log10 of the molar value. Values joined by “and” are separate entries in the source; they are usually repeats but may differ in a detail not shown here. Equal entries are not always repeated.
# Key:
# HSV-1 (strain 377, TK+) = assay: Antiviral activity against HSV-1; assay type: cell-based; conditions: for VR / EC50: HSV-1, range of tests; for EC50: Human alphaherpesvirus 1, read-out: Mic50
# Protocol: (§1) D-2'-CdG and L-2'-CdG were tested, alongside D,L-2'-CdG, against both HSV-1 (strain 377, TK+; obtained from Dr. Earl Kern, University of Alabama) and HSV-2 (strain MS, TK+; also obtained from Dr. Earl Kern). In these tests (Table 5), Ara-A and acyclovir (ACV) were the positive control drugs. In four tests vs. HSV-1, the antiviral activity (VR) and potency (MIC50) of D-2'-CdG were approximately the same as those of racemic 2-CdG. L-2'-CdG was only modestly active.
# HSV-2 (strain MS, TK+) = assay: Antiviral activity against HSV-2; assay type: cell-based; conditions: HSV-2; for EC50: Human alphaherpesvirus 2, read-out: Mic50
# Protocol: as §1
# These compounds were tested against HSV-2(TK^+). The VR of ACV was somewhat higher than the VR values of D-2'-CdG and D,L-2'-CdG, but the values of MIC50 of the two forms of 2'-CdG were lower. In addition, experiments comparing the antiviral activity D-2'-CdG with acyclovir against HSV-1 in human foreskin fibroblasts have shown an even greater potency, in favor of D-2'-CdG.
# human CMV = assay: In vitro activity against human CMV in human foreskin fibroblast cells; assay type: cell-based; conditions: Human betaherpesvirus 5, read-out: ED50 value (median dose at which 50% antiviral efficacy is observed)
# Protocol: The in vitro activity of D-2'-CdG was also compared with the current investigational drug of choice for human CMV, DHPG. These experiments were carried out in human foreskin fibroblast cells.
# HSV-1 TK = molecular target: T1, HSV-1 TK (Human herpesvirus 1, UniProt P0DTH5); assay: Competitive inhibition of [3H]-thymidine phosphorylation by partially purified HSV-1 TK; assay type: biochemical
# T1 construct: HSV thymidine kinase (HSV TK) was isolated from HELA (BU25) cells infected with the SW148 strain of HSV-1; made in house; host or cells: HeLa (BU25) thymidine-kinase-deficient cells infected with HSV-1 strain S148/SW148
# Protocol: The Ki's were determined from a plot of the slope of each line versus the concentration of the competitor (D-, L, or D,L-2'CdG) and are summarized below: TABLE 2
# CMV = CMV yield reduction in MRC5 cell monolayer cultures (plaque assay); assay type: cell-based, human CMV; conditions: for CMV Yield: virus control 5.5
# Protocol: (§2) The D- and L-enantiomers of 2'-CdG were prepared from racemic C-2,6-DAPR by an enzymatic method as described above Secrist et al. (J. Med. Chem. 30:746, 1987). The effectiveness of racemic-2'-CdG and of D-2'-CdG in reducing CMV yields in MRC5 cell monolayer cultures was determined by a plaque assay with the results set forth in tables 6 and 7.
# [1] = tested on: MRC5 cell monolayer cultures; assay: Drug cytotoxicity (gross morphology) in MRC5 cell monolayer cultures; assay type: cell-based
# Protocol: as §2
# HBV = HBV DNA production and replication in 2.2.15 cell cultures; assay type: cell-based, Hepatitis B virus (HBV); conditions: for INTRACELLULAR HBV DNA INTEG. / INTRACELLULAR HBV DNA MONO. / INTRACELLULAR HBV DNA RI: 24 hours following 10th day of treatment; for HBV DNA IN CULTURE MEDIUM DAY 0: day 0 of treatment
# Protocol: 2'-CdG was tested at three concentrations (50 ng/ml, 500 ng/ml, and 5 ug/ml) against the HBV-producing, human liver cell line, 2.2.15 (Sells et al., J. Virol. 62:2836, 1989). A racemic (D,L) preparation, as well as the purified D and L isomers were tested. For these analyses compounds were tested in duplicate at all concentrations. Ara-AMP and ddG (2'3'-dideoxyguanosine) were used as HBV inhibitory control compounds. […] The nucleoside analog, ddG was used as an additional control compound since ddG has activity against duck hepatitis B virus in chronically infected Peking ducks (Lee et al., Antimicrob. Agents Chemother. 33:336, 1989) and 2'-CdG is also a deoxyguanosine analog.
# 2.2.15 cells were seeded in 6 well culture plates and grown to confluence over a 10 day period in medium with 5% FBS. Test compounds were then added daily for a continuous 10 day period in medium with 1% dialyzed FBS. […] Compounds were tested, in duplicate cultures, at 3 concentrations covering a 100-fold range. Culture medium (changed daily during the treatment period) was collected and stored for analysis of extracellular (virion) HBV DNA from days 0, 3, 6, and 10 of the treatment period. This allowed for an analysis of the level of HBV virion production during discrete 24 hour intervals and reduced the potential for the buildup of toxic metabolites derived from the test compounds. Treated cells were lysed following the 10th day of treatment for the analysis of intracellular HBV genomic forms. HBV DNA was analyzed in a quantitative manner for (i) overall levels (both extracellular and intracellular DNA) and (ii) the relative rate of HBV replication (intracellular DNA only).
# HBV DNA levels were measured by comparison to known amounts of HBV DNA standards applied to every nitrocellulose filter (gel or slot blot) using an AMBIS Beta Scanner. Standard curves, generated by multiple analyses, were used to correlate CPM measurements with relative levels of target HBV DNA. The levels of HBV DNA in each of three classes of intracellular viral genomic forms were individually quantitated: integrated HBV DNA, episomal monomeric genomes and HBV DNA replication intermediates (RI). Integrated HBV DNA was used to normalize the relative amounts of DNA in each lane because the levels of this class of HBV DNA would be expected to remain constant on a per cell basis. The levels of the monomeric HBV genomes and RI were used as an indicator of the relative level of HBV replication.
# [2] = tested on: MRC5 cell monolayer cultures; assay: Drug cytotoxicity (gross morphology) in MRC5 cell monolayer cultures; assay type: cell-based; remark: listed apart in the source
# T1 sequence (P0DTH5 whole entry): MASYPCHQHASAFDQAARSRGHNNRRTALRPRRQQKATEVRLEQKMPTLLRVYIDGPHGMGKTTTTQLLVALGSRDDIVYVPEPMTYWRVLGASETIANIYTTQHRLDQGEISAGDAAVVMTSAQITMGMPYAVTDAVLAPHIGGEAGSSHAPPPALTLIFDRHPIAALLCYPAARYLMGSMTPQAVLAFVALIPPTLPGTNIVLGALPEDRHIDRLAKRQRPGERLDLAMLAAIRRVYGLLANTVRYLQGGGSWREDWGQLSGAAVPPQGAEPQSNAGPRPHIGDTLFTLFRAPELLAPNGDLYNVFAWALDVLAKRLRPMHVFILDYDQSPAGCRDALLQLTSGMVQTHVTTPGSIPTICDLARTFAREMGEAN
compound,measurement,setting,value
"Nc1nc2c(ncn2COCCO)c(=O)[nH]1 [Acyclovir, acyloguanosine, reference compound]",VR,"HSV-1 (strain 377, TK+)",5.7-6.5
same,EC50,"HSV-1 (strain 377, TK+)",1.5 to 2.9 µg/mL
same,VR,"HSV-2 (strain MS, TK+)",4.5
same,EC50,"HSV-2 (strain MS, TK+)",5.3 µg/mL
"Nc1nc(O)c2ncn(COC(CO)CO)c2n1 [DHPG, dihydroxy propoxymethyl guanine, reference compound]",EC50,human CMV,0.2 µg/mL
"Nc1nc2c(ncn2[C@@H]2C[C@H](CO)[C@@H](O)C2)c(=O)[nH]1 (racemic) [D,L-2'-CdG, (±)-2-amino-1,9-dihydro-[(1α,3β,4α)-3-hydroxy-4(hydroxymethyl)cyclopentyl]-6H-purin-6-one]",pKi,HSV-1 TK,5.52
same,VR,"HSV-1 (strain 377, TK+)",5.3-7.0
same,EC50,"HSV-1 (strain 377, TK+)",0.2 to 0.3 µg/mL
same,potency relative to ACV,"HSV-1 (strain 377, TK+); more potent than ACV",5-10 times
same,VR,"HSV-2 (strain MS, TK+)",3.7
same,EC50,"HSV-2 (strain MS, TK+)",2.6 µg/mL
same,CMV Yield,CMV; 0.032 µg/mL,5.4 log10CCID50/mL
same,CMV Yield,CMV; 0.1 µg/mL,5.0 log10CCID50/mL
same,CMV Yield,CMV; 0.32 µg/mL,4.5 log10CCID50/mL
same,CMV Yield,CMV; 1.0 µg/mL,3.6 log10CCID50/mL
same,CMV Yield,CMV; 3.2 µg/mL,1.0 log10CCID50/mL
same,CMV Yield,CMV; 10 µg/mL,0 log10CCID50/mL
same,inhibition at 0.032 µg/mL,"CMV; Human betaherpesvirus 5, MRC5, 0.032 µg/mL, read-out: Reduction (%) of CPE by CdG at Time of Harvest",0%
same,inhibition at 0.1 µg/mL,"CMV; Human betaherpesvirus 5, MRC5, 0.1 µg/mL, read-out: Reduction (%) of CPE by CdG at Time of Harvest",0%
same,inhibition at 0.32 µg/mL,"CMV; Human betaherpesvirus 5, MRC5, 0.32 µg/mL, read-out: Reduction (%) of CPE by CdG at Time of Harvest",20%
same,inhibition at 1 µg/mL,"CMV; Human betaherpesvirus 5, MRC5, 1.0 µg/mL, read-out: Reduction (%) of CPE by CdG at Time of Harvest",95%
same,inhibition at 3.2 µg/mL,"CMV; Human betaherpesvirus 5, MRC5, 3.2 µg/mL, read-out: Reduction (%) of CPE by CdG at Time of Harvest",100%
same,inhibition at 10 µg/mL,"CMV; Human betaherpesvirus 5, MRC5, 10 µg/mL, read-out: Reduction (%) of CPE by CdG at Time of Harvest",100%
same,EC50,"CMV; Human betaherpesvirus 5, MRC5 cells, read-out: MIC50",0.069 µg/mL
same,Drug Cytotoxicity (Gross Morphology),[1]; 0.032 µg/mL,0
same,Drug Cytotoxicity (Gross Morphology),[1]; 0.1 µg/mL,0
same,Drug Cytotoxicity (Gross Morphology),[1]; 1.0 µg/mL,0
same,Drug Cytotoxicity (Gross Morphology),[1]; 32 µg/mL,toxic
same,INTRACELLULAR HBV DNA INTEG.,HBV; 50ng/ml,1.3 PG/UG CELL DNA and 1.2 PG/UG CELL DNA
same,INTRACELLULAR HBV DNA MONO.,HBV; 50ng/ml,2.1 PG/UG CELL DNA and 1.4 PG/UG CELL DNA
same,INTRACELLULAR HBV DNA RI,HBV; 50ng/ml,12 PG/UG CELL DNA and 18 PG/UG CELL DNA
same,HBV DNA IN CULTURE MEDIUM DAY 0,HBV; 50ng/ml,120 pg/mL and 95 pg/mL
same,HBV DNA IN CULTURE MEDIUM DAY 3,HBV; 50ng/ml,88 pg/mL and 75 pg/mL
same,HBV DNA IN CULTURE MEDIUM DAY 6,HBV; 50ng/ml,55 pg/mL and 77 pg/mL
same,HBV DNA IN CULTURE MEDIUM DAY 10,HBV; 50ng/ml,11 pg/mL and 6 pg/mL
same,INTRACELLULAR HBV DNA INTEG.,HBV; 500ng/ml,1.4 PG/UG CELL DNA and 1.5 PG/UG CELL DNA
same,INTRACELLULAR HBV DNA MONO.,HBV; 500ng/ml,1.8 PG/UG CELL DNA and 2.0 PG/UG CELL DNA
same,HBV DNA IN CULTURE MEDIUM DAY 0,HBV; 500ng/ml,89 pg/mL and 90 pg/mL
same,HBV DNA IN CULTURE MEDIUM DAY 3,HBV; 500ng/ml,41 pg/mL and 55 pg/mL
same,HBV DNA IN CULTURE MEDIUM DAY 10,HBV; 500ng/ml,0.1 pg/mL and 0.2 pg/mL
same,INTRACELLULAR HBV DNA INTEG.,HBV; 5 ug/ml,1.0 PG/UG CELL DNA and 1.6 PG/UG CELL DNA
same,INTRACELLULAR HBV DNA MONO.,HBV; 5 ug/ml,1.9 PG/UG CELL DNA and 1.7 PG/UG CELL DNA
same,HBV DNA IN CULTURE MEDIUM DAY 0,HBV; 5 ug/ml,87 pg/mL and 88 pg/mL
same,HBV DNA IN CULTURE MEDIUM DAY 3,HBV; 5 ug/ml,16 pg/mL and 24 pg/mL
same,HBV DNA IN CULTURE MEDIUM DAY 6,HBV; 5 ug/ml,0.3 pg/mL and 0.4 pg/mL
same,HBV DNA IN CULTURE MEDIUM DAY 10,HBV; 5 ug/ml,0 pg/mL
same,MIC,"HBV; Hepatitis B virus, 240 h, HBV replication in 2.2.15 cells, read-out: minimal inhibitory concentration",~0.05 µg/mL
same,Drug Cytotoxicity (Gross Morphology),[2]; 0.32 µg/mL,0
same,Drug Cytotoxicity (Gross Morphology),[2]; 3.2 µg/mL,v. sl. toxicity
same,Drug Cytotoxicity (Gross Morphology),[2]; 10 µg/mL,sl. toxicity
"Nc1nc2c(ncn2[C@H]2CC[C@@H](CO)O2)c(=O)[nH]1 [DDG, 2'3'-dideoxyguanosine, reference compound]",INTRACELLULAR HBV DNA INTEG.,HBV; 100 uM,1.6 PG/UG CELL DNA and 1.7 PG/UG CELL DNA
same,INTRACELLULAR HBV DNA MONO.,HBV; 100 uM,0.2 PG/UG CELL DNA and 0.1 PG/UG CELL DNA
same,INTRACELLULAR HBV DNA RI,HBV; 100 uM,0.1 PG/UG CELL DNA
same,HBV DNA IN CULTURE MEDIUM DAY 0,HBV; 100 uM,49 pg/mL and 58 pg/mL
same,HBV DNA IN CULTURE MEDIUM DAY 3,HBV; 100 uM,35 pg/mL and 41 pg/mL
same,HBV DNA IN CULTURE MEDIUM DAY 10,HBV; 100 uM,0 pg/mL

# — patent EP0684822B1, “CARBOCYCLIC DEOXYGUANOSINE ANALOGS FOR THE TREATMENT OF VIRAL INFECTIONS” (SOUTHERN RESEARCH INSTITUTE, priority 1993, dated 1994)
